# Several values for one entry are separate records, joined by “and”; a condition that tells them apart may be missing. Equal entries are not always repeated.
# Tested on: CD-1 mice
# Assay: Acute toxicity of intraperitoneal bolus doses in CD-1 mice
# Format: in vivo
# Settings: for tubular dilation: after the 30 day observation period
# Description: 1.2.8 Animals Female CD-1 mice (Body weight: ˜25 g; Age: 7 week old) were purchased, from Charles River Laboratories (Willmington, Mass., USA). MMTV Neu-mice [FVB/N-TgN(MMTV neu)202MUL; Jackson Laboratory, Bar Harbor, Me.] were bred to produce multiple litters. All mice were housed in microisolator cages (Lab Products, Inc., Maywood, N.Y., USA) containing autoclaved bedding in a controlled specific pathogen-free (SPF) environment (12-h light/12-h dark photoperiod, 22±1° C., 60±10% relative humidity), which is fully accredited by the USDA (United States Department of Agriculture). Adult male Lewis rats (Body weight: ˜160 g) were obtained from the specific pathogen-free (SPF) breeding facilities of Harlan Sprague Dawley (Indianapolis, Id., USA) at 14 weeks of age. All husbandry and experimental contact made with the mice and rats maintained SPF conditions. The rats were kept in microisolater cages (Allentown Caging Equipment Co., Inc., Allentown, N.J., USA) containing autoclaved food, water, and bedding. Animal studies were approved by Parker Hughes Institute Animal Care and Use Committee and all animal care procedures 1.5 conformed to the Guide for the Care and Use of Laboratory Animals (National Research Council, National Academy Press, Washington D.C. 1996, USA).
# The toxicity profile of Compound 003 in CD-1 mice and Lewis rats was examined, using standard procedures as previously reported for other experimental drugs (Uckun, et al., 2003, Arzneimittelforschun. 53:357; Uckun, et al., 2002, Clin Cancer Res. 8: 1224; Uckun, et al., 2002, Antimicrob Agents Chemother. 46:3428). In brief, mice and rats were treated with intraperitoneal injections of vehicle or Compound 003 at multiple dose levels. Compound 003 was administered as a 0.2 mL (for mice) or 0.5 mL (for rats) bolus injection containing 10% DMSO as a vehicle. Animals were allowed free access to autoclaved standard pellet food and tap water throughout the experiments and monitored daily for morbidity and mortality. Animals were electively sacrificed on day 7 or day 30 to determine the toxicity of Compound 003 by examining their blood chemistry profiles, blood counts, and evaluating multiple organs for the presence of toxic lesions. Blood was collected by intracardiac puncture following anesthesia with ketamine:xylazine and immediately heparinized. The blood chemistry profiles were examined using a Synchron CX5CE Chemical Analyzer (Beckman Instruments, Inc., Fullerton, Calif., USA). Blood counts (red blood cells [RBC], white blood cells [WBC] and platelets [Plt]) were determined using a HESKA Vet ABC-Diff Hematology Analyzer (HESKA Corporation, Fort Collins, Colo., USA). Absolute neutrophil counts (ANC) and absolute lymphocyte counts (ALC) were calculated from WBC values after determining the percentages of neutrophils and lymphocytes by a manual differential count. At the time of necropsy, […] from mice (bone, bone marrow, brain, cecum, heart, kidney, large intestine, liver, lung, lymph node, ovary, pancreas, skeletal muscle, skin, small intestine, spleen, stomach, thymus, thyroid gland, urinary bladder, and uterus, as available) and 21 different tissues from rats (bone, bone marrow, brain, coagulating gland, epididymis, heart, large intestine, small intestine, kidney, liver, lung, pancreas, peripheral nerve/spinal nerve, skeletal muscle, skin, spinal cord, spleen, stomach, testes, thymus, urinary bladder) were collected within 15 minutes after sacrifice, gross pathological findings were documented, organs were preserved in 10% neutral phosphate buffered formalin, and processed for histopathological examination. For histopathologic studies, formalin fixed tissues were dehydrated and embedded in paraffin by routine methods. Glass slides with affixed 4-5 micron tissue sections were prepared and stained with Hemotoxylin and Eosin (H&E). […]
# [1] = 10 mg/kg single i.p. bolus, Day 7
# [2] = 10 mg/kg single i.p. bolus, Day 30
# [3] = 20 mg/kg single i.p. bolus, Day 7
# [4] = 20 mg/kg single i.p. bolus, Day 30
# [5] = 40 mg/kg single i.p. bolus, Day 7
# [6] = 40 mg/kg single i.p. bolus, Day 30
# [7] = 80 mg/kg single i.p. bolus, Day 7
# [8] = 80 mg/kg single i.p. bolus, Day 30
structure (smiles),measurement,setting,value
"COC(=O)C(C)NP(=O)(OCC1OC(n2cc(C)c(=O)[nH]c2=O)CC1N=[N+]=[N-])Oc1ccc(OC)cc1 (centres unmarked) [Compound 003, 3′-azidothymidine 5′-[p-methoxyphenylmethoxyalaninyl phosphate]]",ALC,[1],5.5 ± 0.0 ×10^9/L
same,ANC,[1],1.2 ± 0.0 ×10^9/L
same,AST,[1],137.1 ± 23.1 IU/L
same,Albumin,[1],1.5 ± 0.0 g/dL
same,Ammonia,[1],174.8 ± 11.8 µmol/L
same,Amylase,[1],1728.6 ± 248.5 U/L
same,BUN,[1],24.1 ± 0.8 mg/dL
same,Calcium,[1],8.9 ± 0.2 mg/dL
same,Creatinine,[1],0.3 ± 0.0 mg/dL
same,Mean Weight Change (g ± SEM),[1],0.16 ± 0.15 g
same,Mean Weight Change [%],[1],(0.6 ± 0.6%)
same,Morbidity,[1],0/20
same,Phosphate,[1],6.2 ± 0.2 mg/dL
same,RBC,[1],9.4 ± 0.2 ×10^12/L
same,Total Bilirubin,[1],0.7 ± 0.1 mg/dL
same,Total Protein,[1],4.1 ± 0.1 g/dL
same,Toxic Organ Lesions,[1],0/20
same,Triglycerides,[1],158.3 ± 18.2 mg/dL
same,WBC,[1],7.3 ± 0.6 ×10^9/L
same,Weight Gain,[1],13/20
same,Weight Loss,[1],7/20
same,ALC,[2],7.5 ×10^9/L and 7.5 ± 0.0 ×10^9/L
same,ANC,[2],2.1 ± 0.0 ×10^9/L
same,AST,[2],114.0 ± 12.4 IU/L
same,Albumin,[2],1.2 ± 0.0 g/dL
same,Ammonia,[2],205.3 ± 15.6 µmol/L
same,Amylase,[2],1993.5 ± 415.9 U/L
same,BUN,[2],21.6 ± 0.7 mg/dL
same,Calcium,[2],8.2 ± 0.2 mg/dL
same,Creatinine,[2],0.3 ± 0.0 mg/dL
same,Mean Weight Change (g ± SEM),[2],2.61 ± 0.45 g
same,Mean Weight Change [%],[2],(10.4 ± 1.8%)
same,Morbidity,[2],0/20
same,Phosphate,[2],5.7 ± 0.2 mg/dL
same,RBC,[2],9.1 ± 0.1 ×10^12/L
same,Total Bilirubin,[2],0.4 ± 0.0 mg/dL
same,Total Protein,[2],4.0 ± 0.1 g/dL
same,Toxic Organ Lesions,[2],0/20
same,Triglycerides,[2],88.1 ± 10.3 mg/dL
same,WBC,[2],9.9 ± 1.0 ×10^9/L
same,Weight Gain,[2],18/20
same,Weight Loss,[2],2/20
same,ALC,[3],6.9 ± 0.0 ×10^9/L
same,ANC,[3],1.6 ± 0.0 ×10^9/L
same,AST,[3],100.0 ± 6.7 IU/L
same,Albumin,[3],1.4 ± 0.0 g/dL
same,Ammonia,[3],201.9 ± 15.0 µmol/L
same,Amylase,[3],1810.3 ± 268.8 U/L
same,BUN,[3],23.7 ± 0.7 mg/dL
same,Calcium,[3],8.9 ± 0.1 mg/dL
same,Creatinine,[3],0.4 ± 0.0 mg/dL
same,Mean Weight Change (g ± SEM),[3],-0.04 ± 0.16 g
same,Mean Weight Change [%],[3],(−0.1 ± 0.7%)
same,Morbidity,[3],0/20
same,Phosphate,[3],6.6 ± 0.2 mg/dL
same,RBC,[3],9.0 ± 0.3 ×10^12/L
same,Total Bilirubin,[3],0.5 ± 0.1 mg/dL
same,Total Protein,[3],4.2 ± 0.1 g/dL
same,Toxic Organ Lesions,[3],0/20
same,Triglycerides,[3],144.3 ± 17.5 mg/dL
same,WBC,[3],8.7 ± 0.8 ×10^9/L
same,Weight Gain,[3],10/20
same,Weight Loss,[3],10/20
same,ALC,[4],6.8 ×10^9/L and 6.8 ± 0.0 ×10^9/L
same,ANC,[4],2.0 ± 0.0 ×10^9/L
same,AST,[4],107.8 ± 13.2 IU/L
same,Albumin,[4],1.1 ± 0.0 g/dL
same,Ammonia,[4],150.5 ± 10.3 µmol/L
same,Amylase,[4],1587.6 ± 261.5 U/L
same,BUN,[4],20.4 ± 0.6 mg/dL
same,Calcium,[4],8.1 ± 0.1 mg/dL
same,Creatinine,[4],0.3 ± 0.0 mg/dL
same,Mean Weight Change (g ± SEM),[4],3.01 ± 0.28 g
same,Mean Weight Change [%],[4],(12.4 ± 1.1%)
same,Morbidity,[4],0/20
same,Phosphate,[4],6.2 ± 0.1 mg/dL
same,RBC,[4],9.1 ± 0.2 ×10^12/L
same,Total Bilirubin,[4],0.5 ± 0.0 mg/dL
same,Total Protein,[4],3.8 ± 0.1 g/dL
same,Toxic Organ Lesions,[4],0/20
same,Triglycerides,[4],84.6 ± 7.2 mg/dL
same,WBC,[4],9.3 ± 0.8 ×10^9/L
same,Weight Gain,[4],20/20
same,Weight Loss,[4],0/20
same,tubular dilation,20 mg/kg,2/20
same,ALC,[5],5.5 ± 0.0 ×10^9/L
same,ANC,[5],1.7 ± 0.0 ×10^9/L
same,AST,[5],134.3 ± 23.2 IU/L
same,Albumin,[5],1.5 ± 0.0 g/dL
same,Ammonia,[5],366.8 ± 23.7 µmol/L
same,Amylase,[5],1597.8 ± 100.0 U/L
same,BUN,[5],27.6 ± 0.7 mg/dL
same,Calcium,[5],8.8 ± 0.2 mg/dL
same,Creatinine,[5],0.5 ± 0.1 mg/dL
same,Mean Weight Change (g ± SEM),[5],-0.06 ± 0.21 g
same,Mean Weight Change [%],[5],(−0.2 ± 0.9%)
same,Morbidity,[5],0/20
same,Phosphate,[5],7.0 ± 0.2 mg/dL
same,RBC,[5],9.8 ± 0.3 ×10^12/L
same,Total Bilirubin,[5],0.7 ± 0.2 mg/dL
same,Total Protein,[5],4.5 ± 0.1 g/dL
same,Toxic Organ Lesions,[5],0/20
same,Triglycerides,[5],134.7 ± 21.6 mg/dL
same,WBC,[5],7.4 ± 0.7 ×10^9/L
same,Weight Gain,[5],9/20
same,Weight Loss,[5],11/20
same,ALC,[6],4.7 ×10^9/L and 4.7 ± 0.0 ×10^9/L
same,ANC,[6],1.4 ± 0.0 ×10^9/L
same,AST,[6],198.5 ± 51.8 IU/L
same,Albumin,[6],1.2 ± 0.0 g/dL
same,Ammonia,[6],139.2 ± 8.3 µmol/L
same,Amylase,[6],2153.7 ± 411.4 U/L
same,BUN,[6],20.5 ± 0.8 mg/dL
same,Calcium,[6],7.2 ± 0.2 mg/dL
same,Creatinine,[6],0.3 ± 0.0 mg/dL
same,Mean Weight Change (g ± SEM),[6],2.34 ± 0.35 g
same,Mean Weight Change [%],[6],(9.6 ± 1.4%)
same,Morbidity,[6],0/20
same,Phosphate,[6],5.9 ± 0.3 mg/dL
same,RBC,[6],9.1 ± 0.1 ×10^12/L
same,Total Bilirubin,[6],0.5 ± 0.1 mg/dL
same,Total Protein,[6],3.9 ± 0.1 g/dL
same,Toxic Organ Lesions,[6],0/20
same,Triglycerides,[6],74.9 ± 5.0 mg/dL
same,WBC,[6],6.2 ± 0.7 ×10^9/L
same,Weight Gain,[6],18/20
same,Weight Loss,[6],2/20
same,tubular dilation,40 mg/kg,1/20
same,ALC,[7],6.7 ± 0.0 ×10^9/L
same,ANC,[7],2.4 ± 0.0 ×10^9/L
same,AST,[7],111.4 ± 7.8 IU/L
same,Albumin,[7],1.5 ± 0.1 g/dL
same,Ammonia,[7],293.1 ± 23.4 µmol/L
same,Amylase,[7],1424.6 ± 37.1 U/L
same,BUN,[7],27.7 ± 0.9 mg/dL
same,Calcium,[7],9.1 ± 0.2 mg/dL
same,Creatinine,[7],0.3 ± 0.0 mg/dL
same,Mean Weight Change (g ± SEM),[7],0.09 ± 0.20 g
same,Mean Weight Change [%],[7],(0.4 ± 0.8%)
same,Morbidity,[7],0/20
same,Phosphate,[7],6.0 ± 0.2 mg/dL
same,RBC,[7],9.3 ± 0.2 ×10^12/L
same,Total Bilirubin,[7],0.8 ± 0.2 mg/dL
same,Total Protein,[7],4.9 ± 0.2 g/dL
same,Toxic Organ Lesions,[7],0/20
same,Triglycerides,[7],197.6 ± 34.7 mg/dL
same,WBC,[7],9.5 ± 0.9 ×10^9/L
same,Weight Gain,[7],11/20
same,Weight Loss,[7],9/20
same,ALC,[8],3.4 ×10^9/L and 3.4 ± 0.0 ×10^9/L
same,ANC,[8],1.6 ± 0.0 ×10^9/L
same,AST,[8],154.2 ± 33.8 IU/L
same,Albumin,[8],1.2 ± 0.0 g/dL
same,Ammonia,[8],178.4 ± 17.9 µmol/L
same,Amylase,[8],1397.1 ± 339.3 U/L
same,BUN,[8],26.1 ± 1.3 mg/dL
same,Calcium,[8],7.7 ± 0.2 mg/dL
same,Creatinine,[8],0.3 ± 0.0 mg/dL
same,Mean Weight Change (g ± SEM),[8],3.24 ± 0.29 g
same,Mean Weight Change [%],[8],(13.4 ± 1.2%)
same,Morbidity,[8],0/20
same,Phosphate,[8],5.8 ± 0.4 mg/dL
same,RBC,[8],9.4 ± 0.2 ×10^12/L
same,Total Bilirubin,[8],0.6 ± 0.0 mg/dL
same,Total Protein,[8],4.1 ± 0.1 g/dL
same,Toxic Organ Lesions,[8],0/20
same,Triglycerides,[8],85.6 ± 9.5 mg/dL
same,WBC,[8],5.3 ± 0.5 ×10^9/L
same,Weight Gain,[8],20/20
same,Weight Loss,[8],0/20
same,tubular dilation,80 mg/kg,1/20
same,"Kidney tubular degeneration, share of drug-treated mice","40 and 80 mg/kg, following the 7 day period",~50%
same,leukopenia / lymphocyte depletion,"day 30, 10-80 mg/kg",causes leukopenia in a dose-dependent fashion due to a selective depletion of lymphocytes
same,overall toxicity (histologic evaluation),doses up to and including 80mg/kg,nontoxic
same,"hematologic toxicity, renal toxicity, hepatotoxicity",highest dose level of 80 mg/kg/day,"no evidence of hematologic toxicity renal toxicity, or hepatotoxicity"
same,LD10,"single i.p. bolus, not reached at highest dose",> 80 mg/kg/day

# — patent publication US20060046972A1, “Cytotoxic nucleoside analog compound 003 for treating cancer” (Parker Hughes Institute, priority 2004, published 2006)
